“And” between values parts separate entries of the source, which are not always exact repeats. Identical values can stand only once.
How the values were obtained:
[1] = target: small subunits of RuBisCO (Spinacia oleracea, UniProt P00870); test: Bioaffinity chromatography of steroid-binding proteins
Source text: As an example, ecdysteroids can be stated. […] Their function in plants has been unknown yet. We discovered that these compounds influence the carboxylase activity of the enzyme. The active enzyme consists of 8 large subunits and 8 small subunits considered to have regulatory role. We identified the small subunits as proteins able to bind 20-hydroxyecdysone (20HE) in bioaffinity chromatography.

[2] = test system: photosynthesis; test: Overall activity of photosynthesis in vivo: oxygen production by leaf target (Clark oxygen electrode); settings: for Net photosynthetic rate. PN, Average: average of 6 plants; for Net photosynthetic rate. PN: individual plants (Plant nr. 1-6), listed as 20E
Protocol: Activity of photosynthesis was measured as the production of oxygen by circular target (average 35 mm) cut from the third leaf (counted from the top of the plant) that was placed in the sampling chamber. Assay: oxygen electrode (Clark electrode), sampling chamber LD2 (Hansatech, King's Lynn, Great Britain). Target was incubated in the dark for 5 minutes followed by 9 minutes of illumination; production of oxygen evaluated in the fifth-eighth minute after illumination (in the linear part of the light curve). Illumination was 240 micromol.m^-2.s^-1. Plants were 96 days old when analyzed (96 days after sowing). […]

[3] = target: T1, RuBisCO (Spinacia oleracea, UniProt P00870+P00875); test: RuBisCO carboxylase assay (formation of acid-stable 14C product from NaH14CO3); assay type: biochemical, spinach
T1 construct: from tissue; host or cells: spinach
Source text: Relative amount of product detected represents the ratio of the amount of [1-14C]-3-phosphoglycerate produced by the reaction in the presence of 20E to the amount of [1-14C]-3-phosphoglycerate produced by the reaction in no presence of 20E.
The influence of ecdysteroids on RuBisCO assay was based on the protocol described by Pierce et al. (Pierce JW, McCurry SD, Mulligan RM, Tolbert NE. Activation and assay of ribulose-1,5-bisphosphate carboxylase/oxygenase. Methods Enzymol. 1982; 89: 47-55.), where the RuBisCO carboxylase activity is assayed by the rate of formation of acid-stable ^14C product, […], formed from NaH^14CO3. First, the enzyme from spinach was activated at 2 mg.mL^-1 in the activating buffer - 100 mM Bicine pH 8.2, non-labelled 10 mM NaHCO3, 20 mM MgCl2, 0.2 mM EDTA and 1 mM dithiodireitol - for ten minutes at 30 °C. The assay itself was carried out in 20 ml scintillation vials in a solution prepared by mixing 250 µL of 200 mM bicine buffer pH 8.2, 0.4 mM EDTA and 1 mM dithiothreitol, 5 µL of 2 M MgCl2, 150 µL of 20E solution or water (in the case of the control), 20 µL of 250 mM NaH^14CO3 solution and 20 µL of 12.5 mM ribulose-1,5-bisphosphate. 250 mM NaH^14CO3 was prepared by mixing NaH^14CO3 solution (specific activity 2 mCi/ml) with 0.3 M NaHCO3 in the ratio of 1:4. The reaction was initiated by the addition of 100 µL of the activated enzyme and the vial was swirled so that the solution components could mix. The reaction was stopped by the addition of 200 µL of 2 M HCl. To remove excess ^14CO2 and acid, the vials were slowly heated at 95 °C in a hood. After the liquid evaporated and the vials were cooled at laboratory temperature, 5 mL of scintillation solution Rotiszint® eco plus was added. The concentration of 20E was chosen so that its final molar concentration to the molar concentration of the enzyme in the vial was 1:1; the stock solution containing 1 mg of 20E per ml was diluted to the desired concentration just before the experiment.
The same experiment as in Example 1 was carried out but different amounts of 20-hydroxyecdysone were used.
The same experiment as in Example 1 was carried out but different brassinosteroids were used.
The same experiment as in Example 1 was carried out but different ecdysteroids were used.
The same experiment as in Example 1 was carried out but mixed ecdysteroid fractions were used.

[4] = molar ratio of steroid to enzyme 10:1, relative to reaction without steroid

T1 sequence (P00870 whole entry, other chains not shown): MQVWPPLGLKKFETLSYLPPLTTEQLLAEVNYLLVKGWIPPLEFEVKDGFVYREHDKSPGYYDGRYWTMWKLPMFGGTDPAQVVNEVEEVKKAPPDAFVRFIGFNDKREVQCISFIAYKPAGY
Sequence of small subunits of RuBisCO (P00870 whole entry): as the sequence (P00870 whole entry, other chains not shown) above

## CC(C)(O)CC[C@@H](O)[C@](C)(O)[C@H]1CC[C@@]2(O)C3=CC(=O)[C@@H]4C[C@@H](O)[C@@H](O)C[C@]4(C)[C@H]3CC[C@]12C [20-hydroxyecdysone]
[1]
  binding to small subunits of RuBisCO: able to bind
[2]; 1 hour
  Net photosynthetic rate. PN, Average: 21.09 µmol O2.m^-2.s^-1
[2]; 1 hour, plants 96 days old, illumination 240 micromol.m^-2.s^-1
  Net photosynthetic rate. PN: 17.02 µmol O2.m^-2.s^-1 and 21.56 µmol O2.m^-2.s^-1 and 22.70 µmol O2.m^-2.s^-1 and 18.40 µmol O2.m^-2.s^-1 and 23.42 µmol O2.m^-2.s^-1 (2×)
[2]; 2 hours
  Net photosynthetic rate. PN, Average: 22.77 µmol O2.m^-2.s^-1
  Net photosynthetic rate. PN: 18.73 µmol O2.m^-2.s^-1 and 21.56 µmol O2.m^-2.s^-1 and 23.83 µmol O2.m^-2.s^-1 and 23.42 µmol O2.m^-2.s^-1 and 25.10 µmol O2.m^-2.s^-1 and 23.98 µmol O2.m^-2.s^-1
[2]; 4 hours
  Net photosynthetic rate. PN, Average: 22.34 µmol O2.m^-2.s^-1
  Net photosynthetic rate. PN: 21.56 µmol O2.m^-2.s^-1 and 22.70 µmol O2.m^-2.s^-1 and 22.31 µmol O2.m^-2.s^-1 (2×) and 21.75 µmol O2.m^-2.s^-1 and 23.42 µmol O2.m^-2.s^-1
[2]; 6 hours
  Net photosynthetic rate. PN, Average: 22.72 µmol O2.m^-2.s^-1
  Net photosynthetic rate. PN: 23.83 µmol O2.m^-2.s^-1 and 22.70 µmol O2.m^-2.s^-1 and 22.31 µmol O2.m^-2.s^-1 (2×) and 21.75 µmol O2.m^-2.s^-1 and 23.42 µmol O2.m^-2.s^-1
[3]; molar ratio of steroid to enzyme 1:1, [1-14C]-3-phosphoglycerate relative to reaction without steroid
  Relative amount of product detected: 1.05
[3]; [4]
  Relative amount of product detected: 1.13
[3]; molar ratio of steroid to enzyme 20:1, relative to reaction without steroid
  Relative amount of product detected: 1.12

## CC(C)[C@@H](C)[C@@H](O)[C@H](O)[C@@H](C)[C@H]1CC[C@H]2[C@@H]3COC(=O)[C@H]4C[C@H](O)[C@H](O)C[C@]4(C)[C@H]3CC[C@]12C [24-epibrassinolide]
[3]; [4]
  Relative amount of product detected: 1.10

## CC(C)[C@@H](C)[C@@H](O)[C@H](O)[C@@H](C)[C@H]1CC[C@H]2[C@@H]3CC(=O)[C@H]4C[C@H](O)[C@H](O)C[C@]4(C)[C@H]3CC[C@]12C [24-epicastasterone]
[3]; [4]
  Relative amount of product detected: 1.20

## CC(C)CC[C@@H](O)[C@](C)(O)[C@H]1CC[C@@]2(O)C3=CC(=O)[C@@H]4C[C@@H](O)[C@@H](O)C[C@]4(C)[C@H]3[C@H](O)C[C@]12C [Ajugasterone C]
[3]; [4]
  Relative amount of product detected: 1.13

## CC(C)(O)CC[C@@H](O)[C@](C)(O)[C@H]1CC[C@@]2(O)C3=CC(=O)[C@]4(O)C[C@@H](O)[C@@H](O)C[C@]4(C)[C@H]3CC[C@]12C [Polypodine B]
[3]; [4]
  Relative amount of product detected: 1.11

From patent EP2142646B1, “METHOD OF INCREASING OF THE PHOTOSYNTHETIC CARBON DIOXIDE ASSIMILATION YIELD” (priority 2007, dated 2008)
